From US11447466B2, “Substituted indole compounds useful as inhibitors of TLR7/8/9” (BRISTOL-MYERS SQUIBB COMPANY, priority 2017, dated 2022)

Legend:
Assay type in all cases: cell-based
human TLR7 = target: T1, human TLR7 (Homo sapiens, UniProt Q9NYK1); test: TLR7 inhibition reporter assay (HEK-Blue SEAP reporter, gardiquimod stimulation); details: HEK-Blue cells overexpressing human TLR7, SEAP reporter, gardiquimod 7.5 μM, 22 hour incubation
T1 construct: host or cells: HEK-Blue cells
T1 sequence (Q9NYK1 27-1049): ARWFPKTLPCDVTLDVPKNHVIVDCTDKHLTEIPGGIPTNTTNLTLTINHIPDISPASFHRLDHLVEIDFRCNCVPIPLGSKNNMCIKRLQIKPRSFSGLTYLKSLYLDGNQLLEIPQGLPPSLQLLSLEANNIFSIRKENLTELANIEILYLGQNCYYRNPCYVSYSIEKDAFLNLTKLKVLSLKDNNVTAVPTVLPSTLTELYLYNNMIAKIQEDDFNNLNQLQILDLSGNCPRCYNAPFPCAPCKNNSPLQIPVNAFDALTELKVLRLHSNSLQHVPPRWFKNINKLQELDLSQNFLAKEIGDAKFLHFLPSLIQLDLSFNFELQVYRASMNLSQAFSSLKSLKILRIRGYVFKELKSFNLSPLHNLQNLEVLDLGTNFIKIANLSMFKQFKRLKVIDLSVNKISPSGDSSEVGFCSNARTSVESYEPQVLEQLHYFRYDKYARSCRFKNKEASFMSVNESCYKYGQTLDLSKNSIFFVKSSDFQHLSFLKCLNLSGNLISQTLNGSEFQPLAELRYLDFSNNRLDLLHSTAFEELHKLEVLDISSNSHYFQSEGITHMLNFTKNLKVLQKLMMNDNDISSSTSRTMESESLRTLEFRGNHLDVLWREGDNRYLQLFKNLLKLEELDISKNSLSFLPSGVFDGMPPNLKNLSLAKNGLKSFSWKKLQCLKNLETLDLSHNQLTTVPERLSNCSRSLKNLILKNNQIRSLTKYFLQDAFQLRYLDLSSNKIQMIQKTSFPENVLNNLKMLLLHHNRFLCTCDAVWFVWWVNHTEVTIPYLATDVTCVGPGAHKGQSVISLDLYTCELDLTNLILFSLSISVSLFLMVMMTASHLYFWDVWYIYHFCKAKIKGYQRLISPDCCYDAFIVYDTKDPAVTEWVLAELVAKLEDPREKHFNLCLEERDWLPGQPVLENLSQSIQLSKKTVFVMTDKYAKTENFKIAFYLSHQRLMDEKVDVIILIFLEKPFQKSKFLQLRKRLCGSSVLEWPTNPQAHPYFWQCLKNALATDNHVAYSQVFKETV
Procedure, shortened: (§1)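 Human TLR7/8/9 HEK-Blue reporter lines; dose range 0.05 nM–50 μM; 30 min RT preincubation; stimulus gardiquimod 7.5 μM / R848 15.9 μM / ODN2006 5 nM respectively; 22 h, 37 °C; SEAP detected colorimetrically.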

human TLR8 = target: T2, human TLR8 (Homo sapiens, UniProt Q9NR97); test: TLR8 inhibition reporter assay (HEK-Blue SEAP reporter, R848 stimulation); details: HEK-Blue cells overexpressing human TLR8, SEAP reporter, R848 15.9 μM, 22 hour incubation
T2 construct: host or cells: HEK-Blue cells
T2 sequence (Q9NR97 27-1041): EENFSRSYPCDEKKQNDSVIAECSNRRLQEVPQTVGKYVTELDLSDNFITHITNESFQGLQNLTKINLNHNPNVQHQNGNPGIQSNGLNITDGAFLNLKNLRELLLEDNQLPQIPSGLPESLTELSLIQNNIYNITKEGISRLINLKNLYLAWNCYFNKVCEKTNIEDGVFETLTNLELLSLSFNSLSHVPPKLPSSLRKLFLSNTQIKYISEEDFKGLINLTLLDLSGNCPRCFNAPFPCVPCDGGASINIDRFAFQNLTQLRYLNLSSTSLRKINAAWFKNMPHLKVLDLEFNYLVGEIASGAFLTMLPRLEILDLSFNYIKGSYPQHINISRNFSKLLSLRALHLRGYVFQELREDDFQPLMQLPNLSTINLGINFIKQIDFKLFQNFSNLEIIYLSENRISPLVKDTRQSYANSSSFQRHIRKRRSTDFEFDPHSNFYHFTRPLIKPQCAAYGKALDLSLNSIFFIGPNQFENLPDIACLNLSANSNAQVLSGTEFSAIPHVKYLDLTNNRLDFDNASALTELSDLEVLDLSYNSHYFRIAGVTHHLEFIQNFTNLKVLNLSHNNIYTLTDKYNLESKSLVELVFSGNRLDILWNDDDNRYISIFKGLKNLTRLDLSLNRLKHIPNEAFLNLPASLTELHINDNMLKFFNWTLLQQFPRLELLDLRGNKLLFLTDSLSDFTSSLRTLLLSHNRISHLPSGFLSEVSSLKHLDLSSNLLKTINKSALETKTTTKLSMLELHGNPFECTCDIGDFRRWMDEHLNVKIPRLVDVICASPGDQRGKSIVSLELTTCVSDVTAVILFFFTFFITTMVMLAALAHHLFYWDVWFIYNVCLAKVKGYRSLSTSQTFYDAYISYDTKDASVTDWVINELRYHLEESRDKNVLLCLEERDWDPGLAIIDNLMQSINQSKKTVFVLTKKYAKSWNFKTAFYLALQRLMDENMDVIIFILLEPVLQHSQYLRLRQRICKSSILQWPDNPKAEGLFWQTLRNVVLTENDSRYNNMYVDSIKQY
Procedure, shortened: as §1

human TLR9 = target: T3, human TLR9 (Homo sapiens, UniProt Q9NR96); test: TLR9 inhibition reporter assay (HEK-Blue SEAP reporter, ODN2006 stimulation); details: HEK-Blue cells overexpressing human TLR9, SEAP reporter, ODN2006 5 nM, 22 hour incubation
T3 construct: host or cells: HEK-Blue cells
T3 sequence (Q9NR96 26-1032): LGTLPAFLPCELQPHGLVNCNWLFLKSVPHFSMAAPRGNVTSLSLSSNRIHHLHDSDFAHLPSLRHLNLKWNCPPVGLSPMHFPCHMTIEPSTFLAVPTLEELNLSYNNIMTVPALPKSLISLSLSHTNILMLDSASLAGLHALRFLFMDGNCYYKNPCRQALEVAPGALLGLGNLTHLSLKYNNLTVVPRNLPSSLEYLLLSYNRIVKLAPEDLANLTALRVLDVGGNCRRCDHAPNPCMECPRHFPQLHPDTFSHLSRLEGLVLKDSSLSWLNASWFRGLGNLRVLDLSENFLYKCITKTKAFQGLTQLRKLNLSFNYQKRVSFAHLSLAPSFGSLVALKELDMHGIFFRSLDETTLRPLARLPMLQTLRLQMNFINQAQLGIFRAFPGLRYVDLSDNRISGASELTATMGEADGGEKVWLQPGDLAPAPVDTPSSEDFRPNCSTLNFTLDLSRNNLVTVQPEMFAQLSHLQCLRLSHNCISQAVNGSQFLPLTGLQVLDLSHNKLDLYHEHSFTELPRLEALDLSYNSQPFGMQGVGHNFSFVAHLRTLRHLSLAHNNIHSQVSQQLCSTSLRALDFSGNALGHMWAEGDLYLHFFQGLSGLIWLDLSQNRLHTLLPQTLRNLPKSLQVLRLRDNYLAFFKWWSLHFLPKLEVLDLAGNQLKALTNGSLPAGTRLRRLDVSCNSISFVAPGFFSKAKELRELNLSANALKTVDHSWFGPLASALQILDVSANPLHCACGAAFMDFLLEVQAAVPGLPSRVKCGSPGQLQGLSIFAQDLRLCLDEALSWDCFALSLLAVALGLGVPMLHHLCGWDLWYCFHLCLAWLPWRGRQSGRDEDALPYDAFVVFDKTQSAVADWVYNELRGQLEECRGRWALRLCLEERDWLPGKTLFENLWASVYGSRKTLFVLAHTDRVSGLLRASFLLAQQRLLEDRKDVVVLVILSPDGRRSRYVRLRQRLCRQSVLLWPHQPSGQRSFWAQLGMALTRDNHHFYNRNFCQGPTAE
Procedure, shortened: as §1

Row | IC50 (human TLR7) [nM] | IC50 (human TLR8) [nM] | IC50 (human TLR9) [nM] | Structure (SMILES)
1 | 4.3 | 7.4 | 11800 | Cc1c(-c2[nH]c3ccc(C4CCN(C(C)C(N)=O)CC4)cc3c2C(C)C)cn(C)c(=O)c1Cl (stereo not drawn) [Example 156, 2-(4-(2-(5-chloro-1,4-dimethyl-6-oxo-1,6-dihydropyridin-3-yl)-3-isopropyl-1H-indol-5-yl)piperidin-1-yl)propanamide]
2 | 7 | 22.3 | 3230 | Cc1cc(-c2[nH]c3ccc(C4CCN(C5CCC(C(F)(F)F)CC5)CC4)cc3c2C(C)C)cn(C)c1=O (stereo not drawn) [Example 231, 5-(3-isopropyl-5-(1-(4-(trifluoromethyl)cyclohexyl)piperidin-4-yl)-1H-indol-2-yl)-1,3-dimethylpyridin-2(1H)-one]
3 | 179 | 107 | 763 | CC(C)c1c(-c2ccc(=O)n(C)n2)[nH]c2ccc(C3CCNCC3)cc12 [Example 5, 6-(3-isopropyl-5-(piperidin-4-yl)-1H-indol-2-yl)-2-methylpyridazin-3(2H)-one]
4 | 5.9 | 12.3 | 5280 | Cc1cc(-c2[nH]c3ccc(C4CCN(C(=O)[C@@H]5C[C@@H](O)CN5C)CC4)cc3c2C(C)C)cn(C)c1=O [Example 289, 5-(5-(1-((2S,4R)-4-hydroxy-1-methylpyrrolidine-2-carbonyl)piperidin-4-yl)-3-isopropyl-1H-indol-2-yl)-1,3-dimethylpyridin-2(1H)-one]
5 | 18.6 | 14.5 | 9640 | CNC(=O)CN1CCC(c2ccc3[nH]c(-c4cc(C)c(=O)n(C)n4)c(C(C)C)c3c2)CC1 [Example 118, 2-(4-(2-(1,5-dimethyl-6-oxo-1,6-dihydropyridazin-3-yl)-3-isopropyl-1H-indol-5-yl)piperidin-1-yl)-N-methylacetamide]
6 | 2 | 8.5 | 13500 | Cc1cc(-c2[nH]c3ccc(C4CCN(C)CC4)cc3c2C(C)C)cn(C)c1=O [Example 181, 5-(3-isopropyl-5-(1-methylpiperidin-4-yl)-1H-indol-2-yl)-1,3-dimethylpyridin-2(1H)-one]
7 | 6.1 | 0.6 | 983 | CC(C)c1c(-c2cc(-c3cncnc3)c(=O)n(C)c2)[nH]c2ccc(C3CCN(CC4CCOC4)CC3)c(F)c12 (stereo not drawn) [Example 259, 5-(4-fluoro-3-isopropyl-5-(1-((tetrahydrofuran-3-yl)methyl)piperidin-4-yl)-1H-indol-2-yl)-1-methyl-3-(pyrimidin-5-yl)pyridin-2(1H)-one]
8 | 1.2 | 13.7 | 11000 | Cc1cc(-c2[nH]c3ccc(C4CCN(C(C)(C)C(N)=O)CC4)cc3c2C(C)C)cn(C)c1=O [Example 151, 2-(4-(2-(1,5-dimethyl-6-oxo-1,6-dihydropyridin-3-yl)-3-isopropyl-1H-indol-5-yl)piperidin-1-yl)-2-methylpropanamide]
9 | 18.4 | 13.9 | 7180 | COCc1cc(-c2[nH]c3ccc(C4CCN(CC(C)(C)O)CC4)cc3c2C(C)C)cn(C)c1=O [Example 323, 5-(5-(1-(2-hydroxy-2-methylpropyl)piperidin-4-yl)-3-isopropyl-1H-indol-2-yl)-3-(methoxymethyl)-1-methylpyridin-2(1H)-one]
10 | 3 | 2.4 | 4980 | Cc1cc(-c2[nH]c3ccc(C4CCN(Cc5cnn(C)c5)CC4)cc3c2C(C)C)cn(C)c1=O [Example 196, 5-(3-isopropyl-5-(1-((1-methyl-1H-pyrazol-4-yl)methyl)piperidin-4-yl)-1H-indol-2-yl)-1,3-dimethylpyridin-2(1H)-one]
11 | 8.7 | 4.3 | 3000 | Cc1cc(-c2[nH]c3ccc(C4CCN(CC(O)C(C)(C)C)CC4)cc3c2C(C)C)cn(C)c1=O (stereo not drawn) [Example 325, 5-(5-(1-(2-hydroxy-3,3-dimethylbutyl)piperidin-4-yl)-3-isopropyl-1H-indol-2-yl)-1,3-dimethylpyridin-2(1H)-one]
12 | 5.3 | 3.3 | 4850 | Cc1cc(-c2[nH]c3ccc(C4CCNCC4)cc3c2C(C)C)nn(C)c1=O [Example 11, 6-(3-isopropyl-5-(piperidin-4-yl)-1H-indol-2-yl)-2,4-dimethylpyridazin-3(2H)-one]
13 | 8.9 | 14.5 | 14700 | CNC(=O)CN1CCC(c2ccc3[nH]c(-c4cc(C)c(=O)n(CCOC)c4)c(C(C)C)c3c2)CC1 [Example 160, 2-(4-(3-isopropyl-2-(1-(2-methoxyethyl)-5-methyl-6-oxo-1,6-dihydropyridin-3-yl)-1H-indol-5-yl)piperidin-1-yl)-N-methylacetamide]
14 | 9.6 | 1.3 | 2080 | COCCN1CCC(c2ccc3[nH]c(-c4cc(-c5cncnc5)c(=O)n(C)c4)c(C(C)C)c3c2)CC1 [Example 103, 5-(3-isopropyl-5-(1-(2-methoxyethyl)piperidin-4-yl)-1H-indol-2-yl)-1-methyl-3-(pyrimidin-5-yl)pyridin-2(1H)-one]
